Measurements: patent US8940757B2, “Prasugrel in micronized, crystalline form and pharmaceutical composition thereof” (ratiopharm GmbH, priority 2010, dated 2015)
Values after ≈ are worked out from the molar mass of the structure shown.

Assays:
Solubility in water = assay type: physicochemical; settings: free base
Experimental: Prasugrel is administered orally as platelet aggregation inhibitor. The problem here is that Prasugrel is a sparingly soluble active ingredient.

pH-dependent degradation = assay type: physicochemical; settings: pH values of <3, after 2 hours
Experimental: In addition, Prasugrel also has a strongly pH-dependent degradation. With pH values of <3 a degradation of more than 1% is observed already after 2 hours. This limits the potential excipients in the preparation of pharmaceutical formulations.

Q: Which results are given for `CC(=O)Oc1cc2c(s1)CCN(C(C(=O)C1CC1)c1ccccc1F)C2` (stereo not drawn) [Prasugrel, 2-acetoxy-5-(α-cyclopropylcarbonyl-2-fluorobenzyl)-4,5,6,7-tetrahydrothieno[3,2-c]pyridine]?
A: solubility (Solubility in water): 57 µg/mL (≈ 153 µM); degradation (pH-dependent degradation): more than 1%
